We go through 20 compounds from patent USRE47689E1, “Compounds for treating spinal muscular atrophy” (PTC Therapeutics, Inc., priority 2011, dated 2019).

Read-outs that look alike come from different tables or passages of the source.

As usually defined, the melting point is the temperature of the solid-liquid transition.

Data set [1] concerns SMN2 minigene (full length SMN2 minigene mRNA containing SMN2 exon 7). In words: SMN2 minigene mRNA splicing RT-qPCR assay in cultured cells. The format is cell-based, human. Particulars: Homo sapiens, HEK293-H, read-out: EC1.5x for production of full length SMN2 mRNA. In outline: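 HEK293H cells stably carrying the SMN2-A minigene treated 24 h at 37° C with compound (DMSO, 200× stock), then lysed. Multiplex RT-qPCR (SMN primers 0.4 μM final; 40 cycles) measures full-length exon 7-containing minigene mRNA, normalized to GAPDH and to vehicle; EC1.5x derived and binned by stars.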
(In general: Real-time PCR tracks product formation cycle by cycle.)

In another data set the test system is Smn protein. In words: Smn protein assay in cultured cells (SMN HTRF). The format is cell-based, human. Particulars: for EC1.5x (concentration giving 1.5-fold Smn protein increase): read-out: EC1.5x for Smn protein expression. In outline: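 Lysates in RIPA with protease inhibitors are incubated overnight at room temperature with HTRF anti-SMN antibodies. EC1.5x is derived from fold increase in ΔF over vehicle.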
For orientation: In TR-FRET formats the signal depends on donor and acceptor labels being close together.

Where [2] appears, read: HEK293H cells stably transfected with SMN2-A minigene, 24 hours, 7-point concentration curve, 1.5-fold relative to vehicle-treated cells.
[3] abbreviates: SMA patient fibroblast cells, 48 hours, 7-point concentration data, fold increase relative to vehicle control (SMN HTRF).
[4] abbreviates: SMA Type 1 patient fibroblast cells (GM03813), 48 hours, 7-point concentration curve, SMN HTRF, concentration producing 1.5 times Smn protein vs DMSO vehicle control.

`C[C@@H]1CN[C@@H](C)CN1c1ccc2cc(-c3cn4ccc(C(F)(F)F)cc4n3)c(=O)oc2c1` [Compound 277, 7-[(2R,5S)-2,5-dimethylpiperazin-1-yl]-3-[7-(trifluoromethyl)imidazo[1,2-a]pyridin-2-yl]-2H-chromen-2-one] came in with a melting point of 213 to 219 °C. Also, the EC (1.5-fold) in data set [1] (setting [2]) lay in the range of 0.3 to 1 µM. Further, the “maximum fold (Fold) increase of Smn protein” value (shortened to “maximum fold (Fold) increase”) with Smn protein (setting [3]) was “* (maximum fold increase of ≤1.2)”.

In the case of `Cc1cn2cc(-c3cc4ccc(C5CCN(CCCF)CC5)cc4oc3=O)nc2cn1` [Compound 917, 7-[1-(3-fluoropropyl)piperidin-4-yl]-3-(6-methylimidazo[1,2-a]pyrazin-2-yl)-2H-chromen-2-one], the melting point lay within 224 to 234 °C. Besides, the EC (1.5-fold) in data set [1] (setting [2]) was less than 0.1 µM. Also, the EC1.5x (concentration giving 1.5-fold Smn protein increase) in the data set on Smn protein (setting [4]) was less than 300 nM. In addition, the “maximum fold (Fold) increase” value in the data set with Smn protein (setting [3]) is “***** (fold increase >1.65)”.

As for `Cc1cn2cc(-c3cc4ccc(N5CC[C@@H](N(C)C)C5)cc4oc3=O)cc2c(C)n1` [Compound 708, 7-[(3R)-3-(dimethylamino)pyrrolidin-1-yl]-3-(1,3-dimethylpyrrolo[1,2-a]pyrazin-7-yl)-2H-chromen-2-one], the melting point is 155 to 158 °C. The EC (1.5-fold) in data set [1] (setting [2]) is less than 0.1 µM. The “maximum fold (Fold) increase” value in the data set with Smn protein (setting [3]) was “** (fold increase between >1.2 and ≤1.35)”.

In turn, `Cc1cc([N+](=O)[O-])c2nc(-c3cc4ccc(N5CCN[C@@H](C)C5)cc4oc3=O)cn2c1` [Compound 703, 3-(6-methyl-8-nitroimidazo[1,2-a]pyridin-2-yl)-7-[(3S)-3-methylpiperazin-1-yl]-2H-chromen-2-one] yielded a melting point of 251 to 259 °C. In data set [1] (setting [2]), the EC (1.5-fold) fell in the range of 1 to 3 µM. Besides, the “maximum fold (Fold) increase” value in the data set with Smn protein (setting [3]) is “** (fold increase between >1.2 and ≤1.35)”.

On to `CCN1CCC(F)(c2ccc3cc(-c4cn5cc(C)nc(C)c5n4)c(=O)oc3c2)CC1` [Cpd 958, 3-(6,8-dimethylimidazo[1,2-a]pyrazin-2-yl)-7-(1-ethyl-4-fluoropiperidin-4-yl)-2H-chromen-2-one], for which the melting point fell in the range of 162 to 164 °C. In addition, the EC (1.5-fold) in data set [1] (24 h) is less than 0.1 µM. In addition, in the data set with Smn protein, the “maximum fold (Fold) increase” value is “***** (key: *: maximum fold increase of ≤1.2; **: fold increase between >1.2 and ≤1.35; ***: fold increase between >1.35 and ≤1.5; ****: fold increase between >1.5 and ≤1.65; *****: fold increase >1.65)”; the EC1.5x (concentration giving 1.5-fold Smn protein increase) was less than 300 nM.

For the compound `Cc1cccc2nc(-c3cc4ccc(N5CCNCC5)cc4oc3=O)cn12` [Compound 132, 3-(5-methylimidazo[1,2-a]pyridin-2-yl)-7-(piperazin-1-yl)-2H-chromen-2-one], the melting point lay within 239 to 249 °C. The EC (1.5-fold) in data set [1] (setting [2]) was 1 to 3 µM. For the same compound, the “maximum fold (Fold) increase” value in the data set on Smn protein (setting [3]) is on record as “* (maximum fold increase of ≤1.2)”.

In turn, `CC(C)NCc1ccc2cc(-c3nc4c(C(F)(F)F)cccc4s3)c(=O)oc2c1` [Compound 9, 7-[(propan-2-ylamino)methyl]-3-[4-(trifluoromethyl)-1,3-benzothiazol-2-yl]-2H-chromen-2-one] displayed a melting point of 191 to 196 °C. In addition, the EC (1.5-fold) in data set [1] (setting [2]) lay within 3 to 30 µM. Also, the “maximum fold (Fold) increase” value with Smn protein (setting [3]) was “* (maximum fold increase of ≤1.2)”.

Compound `Cc1ccn2cc(-c3cc4ccc(N5CCN[C@@H](C)C5)cc4oc3=O)nc2n1` [Compound 229, 3-(7-methylimidazo[1,2-a]pyrimidin-2-yl)-7-[(3S)-3-methylpiperazin-1-yl]-2H-chromen-2-one] returned a melting point of 298 to 301 °C. Besides, the EC (1.5-fold) in data set [1] (setting [2]) fell in the range of 0.1 to 0.3 µM. In addition, in the data set with Smn protein (setting [3]), the “maximum fold (Fold) increase” value is “*** (fold increase between >1.35 and ≤1.5)”.

In turn, `Cc1cn2cc(-c3cc4ccc(OC5CCN(C(CO)CO)CC5)cc4oc3=O)nc2c(C)n1` [Compound 915, 7-{[1-(1,3-dihydroxypropan-2-yl)piperidin-4-yl]oxy}-3-(6,8-dimethylimidazo[1,2-a]pyrazin-2-yl)-2H-chromen-2-one] gave a melting point of 206 to 210 °C. The EC (1.5-fold) in data set [1] (setting [2]) is less than 0.1 µM. In addition, the EC1.5x (concentration giving 1.5-fold Smn protein increase) in the data set with Smn protein (setting [4]) lay in the range of 300 to 1000 nM. In addition, in the data set with Smn protein (setting [3]), the “maximum fold (Fold) increase” value is “**** (fold increase between >1.5 and ≤1.65)”.

`Cc1ccn2cc(-c3cc4ccc(N5C[C@@H](C)N[C@@H](C)C5)cc4oc3=O)nc2c1` [Compound 133, 7-[(3R,5S)-3,5-dimethylpiperazin-1-yl]-3-(7-methylimidazo[1,2-a]pyridin-2-yl)-2H-chromen-2-one] registered a melting point of 210 to 217 °C. The EC (1.5-fold) in data set [1] (setting [2]) is 0.1 to 0.3 µM. For the same compound, in the data set on Smn protein (setting [4]), the EC1.5x (concentration giving 1.5-fold Smn protein increase) was 3000 to 10000 nM. Besides, the “maximum fold (Fold) increase” value in the data set on Smn protein (setting [3]) was “*** (fold increase between >1.35 and ≤1.5)”.

`CCc1ccn2cc(-c3cc4ccc(N5CCCN(C)CC5)cc4oc3=O)nc2c1` [Compound 333, 3-(7-ethylimidazo[1,2-a]pyridin-2-yl)-7-(4-methyl-1,4-diazepan-1-yl)-2H-chromen-2-one] registered a melting point of 181 to 187 °C. In addition, the EC (1.5-fold) in data set [1] (setting [2]) fell in the range of 0.3 to 1 µM. The “maximum fold (Fold) increase” value with Smn protein (setting [3]) is “* (maximum fold increase of ≤1.2)”.

In turn, `C[C@@H]1CN(c2ccc3cc(-c4cn5ccc(Cl)cc5n4)c(=O)oc3c2)C[C@H](C)N1` [Compound 123, 3-(7-chloroimidazo[1,2-a]pyridin-2-yl)-7-[(3R,5S)-3,5-dimethylpiperazin-1-yl]-2H-chromen-2-one] gave a melting point of 223 to 231 °C. Besides, the EC (1.5-fold) in data set [1] (setting [2]) is 1 to 3 µM. The EC1.5x (concentration giving 1.5-fold Smn protein increase) in the data set on Smn protein (setting [4]) is 300 to 1000 nM. Besides, the “maximum fold (Fold) increase” value in the data set on Smn protein (setting [3]) was “*** (fold increase between >1.35 and ≤1.5)”.

For the compound `Cc1ccc2nc(-c3cc4ccc(N5C[C@@H](C)N[C@@H](C)C5)cc4oc3=O)cn2c1` [Compound 174, 7-[(3R,5S)-3,5-dimethylpiperazin-1-yl]-3-(6-methylimidazo[1,2-a]pyridin-2-yl)-2H-chromen-2-one], the melting point fell in the range of 235 to 237 °C. Also, the EC (1.5-fold) in data set [1] (setting [2]) is less than 0.1 µM. Moreover, the “maximum fold (Fold) increase” value in the data set with Smn protein (setting [3]) was “*** (fold increase between >1.35 and ≤1.5)”.

Regarding `Cc1nccn2cc(-c3cc4ccc(N5CCN(C)CC5)cc4oc3=O)cc12` [Compound 557, 7-(4-methylpiperazin-1-yl)-3-(1-methylpyrrolo[1,2-a]pyrazin-7-yl)-2H-chromen-2-one], the melting point lay within 190 to 192 °C. The EC (1.5-fold) in data set [1] (setting [2]) fell in the range of 0.3 to 1 µM. Moreover, in the data set with Smn protein (setting [3]), the “maximum fold (Fold) increase” value was “*** (fold increase between >1.35 and ≤1.5)”.

The compound `Cc1cn2cc(-c3cc4ccc(N5CCN(CCF)[C@@H](C)C5)cc4oc3=O)nc2c(C)n1` [Compound 894, 3-(6,8-dimethylimidazo[1,2-a]pyrazin-2-yl)-7-[(3S)-4-(2-fluoroethyl)-3-methylpiperazin-1-yl]-2H-chromen-2-one] gave a melting point of 192 to 195 °C. The EC (1.5-fold) in data set [1] (setting [2]) is less than 0.1 µM. The EC1.5x (concentration giving 1.5-fold Smn protein increase) in the data set with Smn protein (setting [4]) is 300 to 1000 nM. Also, the “maximum fold (Fold) increase” value in the data set with Smn protein (setting [3]) is given as “***** (fold increase >1.65)”.

Compound `Cc1cn2cc(-c3cc4ccc(CCCCN(C)CCO)cc4oc3=O)nc2c(C)n1` [Compound 903, 3-(6,8-dimethylimidazo[1,2-a]pyrazin-2-yl)-7-{4-[(2-hydroxyethyl)(methyl)amino]butyl}-2H-chromen-2-one] displayed a melting point of 156 to 160 °C. Further, the EC (1.5-fold) in data set [1] (setting [2]) is less than 0.1 µM. In the data set on Smn protein (setting [4]), the EC1.5x (concentration giving 1.5-fold Smn protein increase) lay in the range of 300 to 1000 nM. Moreover, in the data set with Smn protein (setting [3]), the “maximum fold (Fold) increase” value was “**** (fold increase between >1.5 and ≤1.65)”.

Regarding `Cc1cn2cc(-c3cc4ccc(N5CCN(C6CCC6)CC5)cc4oc3=O)cc2c(C)n1` [Compound 814, 7-(4-cyclobutylpiperazin-1-yl)-3-(1,3-dimethylpyrrolo[1,2-a]pyrazin-7-yl)-2H-chromen-2-one], the melting point lay in the range of 217 to 220 °C. Moreover, the EC (1.5-fold) in data set [1] (setting [2]) was less than 0.1 µM. In the data set with Smn protein (setting [4]), the EC1.5x (concentration giving 1.5-fold Smn protein increase) was less than 300 nM. Further, the “maximum fold (Fold) increase” value with Smn protein (setting [3]) is listed as “***** (fold increase >1.65)”.

Turning to `Cc1cc(F)c2nc(-c3cc4ccc(N5CCN[C@H](C)C5)cc4oc3=O)cn2c1` [Compound 420, 3-(8-fluoro-6-methylimidazo[1,2-a]pyridin-2-yl)-7-[(3R)-3-methylpiperazin-1-yl]-2H-chromen-2-one], the melting point fell in the range of 246 to 254 °C. The EC (1.5-fold) in data set [1] (setting [2]) is less than 0.1 µM. Besides, the EC1.5x (concentration giving 1.5-fold Smn protein increase) with Smn protein (setting [4]) was less than 300 nM. For the same compound, in the data set on Smn protein (setting [3]), the “maximum fold (Fold) increase” value was “**** (fold increase between >1.5 and ≤1.65)”.

Regarding `Cc1cn2cc(-c3cc4ccc(N(C)[C@@H]5CCNC5)cc4oc3=O)nc2c(C)n1` [Compound 700, 3-(6,8-dimethylimidazo[1,2-a]pyrazin-2-yl)-7-{methyl[(3R)-pyrrolidin-3-yl]amino}-2H-chromen-2-one], the melting point was 192 to 202 °C. Besides, the EC (1.5-fold) in data set [1] (setting [2]) lay within 0.1 to 0.3 µM. The EC1.5x (concentration giving 1.5-fold Smn protein increase) in the data set on Smn protein (setting [4]) was less than 300 nM. In the data set on Smn protein (setting [3]), the “maximum fold (Fold) increase” value is recorded as “***** (fold increase >1.65)”.

`C[C@@H]1CN(c2ccc3cc(-c4cn5cc(F)cnc5n4)c(=O)oc3c2)CCN1` [Compound 481, 3-(6-fluoroimidazo[1,2-a]pyrimidin-2-yl)-7-[(3R)-3-methylpiperazin-1-yl]-2H-chromen-2-one] showed a melting point of 232 to 236 °C. In addition, in data set [1] (setting [2]), the EC (1.5-fold) is 1 to 3 µM. In the data set with Smn protein (setting [3]), the “maximum fold (Fold) increase” value is recorded as “* (maximum fold increase of ≤1.2)”.
